Measured values taken from ChEMBL document CHEMBL4813957, “Antitubercular properties of thiazolidin-4-ones - A review” (Eur J Med Chem, 2021).
≈ marks a conversion by molar mass, not a printed value.

Key:
[1] = test system: Mycobacterium tuberculosis; assay: Antimycobacterial activity against Mycobacterium tuberculosis ATCC 27286 assessed as zone of inhibition at 20 ug/ml; assay type: functional; conditions: read-out: IZ
[2] = biological target: T1, Enoyl-[acyl-carrier-protein] reductase [NADH] (Mycobacterium tuberculosis, UniProt P9WGR1); assay: Inhibition of Mycobacterium tuberculosis InhA
T1 sequence (P9WGR1 whole entry): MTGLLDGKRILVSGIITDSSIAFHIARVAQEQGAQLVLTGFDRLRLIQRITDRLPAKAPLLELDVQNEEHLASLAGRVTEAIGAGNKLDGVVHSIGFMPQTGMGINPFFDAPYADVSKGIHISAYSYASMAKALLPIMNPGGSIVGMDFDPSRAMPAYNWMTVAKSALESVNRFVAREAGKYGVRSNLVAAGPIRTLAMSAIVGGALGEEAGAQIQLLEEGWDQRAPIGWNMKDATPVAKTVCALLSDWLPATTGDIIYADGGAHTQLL

[3] = test system: Mycobacterium tuberculosis; assay: Antimycobacterial activity against Mycobacterium tuberculosis H37Rv 27294 by microplate alamar blue assay; assay type: functional
[4] = Cytotoxicity against African green monkey Vero cells after 72 hrs by cell titer glo luminescent cell viability assay; assay type: cell-based; conditions: chlorocebus sabaeus
[5] = Selectivity ratio of CC50 for African green monkey Vero E6 cells to IC90 for Mycobacterium tuberculosis H37Rv 27294; assay type: toxicity, Vero C1008
[6] = test system: Mycobacterium tuberculosis; assay: Antimycobacterial activity against Mycobacterium tuberculosis RCMB 010126 measured after 7 days by microplate alamar blue assay; assay type: functional; conditions: RCMB 010126, 168 h, time 7 day
[7] = test system: WI-38; assay: Cytotoxicity against human WI-38 cells by MTT assay; assay type: cell-based
[8] = Selectivity ratio of IC50 for human WI-38 cells to MIC for Mycobacterium tuberculosis RCMB 010126; assay type: toxicity
[9] = test system: Mycobacterium tuberculosis; assay: Antimycobacterial activity against Mycobacterium tuberculosis H37Rv ATCC 25618 incubated for 5 days by colorimetric microdilution assay; assay type: functional; conditions: H37Rv ATCC 25618, 120 h, time 5 day
[10] = test system: Mycobacterium tuberculosis; assay: Antimycobacterial activity against Mycobacterium tuberculosis H37Rv measured after 11 to 12 days; assay type: functional; conditions: time 11-12 day
[11] = test system: Mycobacterium tuberculosis; assay: Antimycobacterial activity against Mycobacterium tuberculosis measured up to 2 weeks; assay type: functional; conditions: 336 h, time weeks <=2
[12] = test system: Mycobacterium tuberculosis; assay: Antimycobacterial activity against Mycobacterium tuberculosis HN878 measured up to 2 weeks; assay type: functional; conditions: HN878, 336 h, time weeks <=2
[13] = test system: Mycobacterium tuberculosis; assay: Antimycobacterial activity against Mycobacterium tuberculosis Erdman measured up to 2 weeks; assay type: functional; conditions: 336 h, time weeks <=2
[14] = test system: Mycobacterium tuberculosis; assay: Antimycobacterial activity against Mycobacterium tuberculosis H37Ra ATCC 25177 by XTT Reduction Menadione assay; assay type: functional
[15] = test system: Mycobacterium tuberculosis; assay: Antimycobacterial activity against Mycobacterium tuberculosis H37Rv by filter paper disc diffusion method; assay type: functional
[16] = test system: Mycobacterium tuberculosis; assay: Antimycobacterial activity against Mycobacterium tuberculosis H37Rv ATCC 27294 incubated for 5 days by microplate alamar blue assay; assay type: functional; conditions: H37Rv ATCC 27294, 120 h, time 5 day
[17] = test system: Mycobacterium tuberculosis; assay: Antimycobacterial activity against Mycobacterium tuberculosis H37Rv ATCC27294 measured after 28 days by two-fold serial dilution method; assay type: functional; conditions: H37Rv ATCC 27294, 672 h, time 28 day
[18] = test system: Mycobacterium tuberculosis; assay: Antimycobacterial activity against Mycobacterium tuberculosis H37Rv by Lowenstein-Jensen agar method; assay type: functional
[19] = test system: Mycobacterium tuberculosis; assay: Antimycobacterial activity against Mycobacterium tuberculosis H37Rv measured after 12 to 28 days by Lowenstein-Jensen method; assay type: functional; conditions: time 12-28 day

O=C(NN1C(=O)CSC1c1c[nH]c2ccccc12)c1ccncc1 (centres undefined)
zone of inhibition at 20 µg/mL [1]: 35 mm
Ki [2]: 641 nM

CCN1C(=O)/C(=C/c2ccc(OC)cc2)S/C1=N/NC(=O)c1ccncc1
IC90 [3]: 2.95 µg/mL (≈ 7.72 µM)
CC50 at 72 h [4]: 36.9 µg/mL (≈ 96.4 µM)
selectivity ratio [5]: 18.1

CCOC(=O)c1sc(/N=C2\NC(=O)/C(=C/c3cccnc3)S2)nc1C
MIC [6]: 1.56 µg/mL (≈ 4.17 µM)
IC50 [7]: 81.3 µg/mL (≈ 217 µM)
selectivity ratio [8]: 52

C/C(=N/N=C1\NC(=O)CS1)c1cc2ccccc2oc1=O
MIC [9]: 83 µg/mL (≈ 275 µM)

O=C(O)CCCCCC1NC(=O)CS1 (centres undefined)
MIC [10]: 1.56 µM (≈ 0.339 µg/mL)
MIC [11]: 0.096 µM (≈ 0.0209 µg/mL)
MIC [12]: 0.6 µM (≈ 0.13 µg/mL)
MIC [13]: 1.56 µM (≈ 0.339 µg/mL)

O=C1NC(=S)S/C1=C\c1ccc([N+](=O)[O-])cc1
IC90 [14]: 22.3 µg/mL (≈ 83.7 µM)

CO[C@H]1/C=C/O[C@@]2(C)Oc3c(C)c(O)c4c(O)c(c(/C=N/N5CCN(C)CC5)c(O)c4c3C2=O)NC(=O)/C(C)=C\C=C\[C@H](C)[C@H](O)[C@@H](C)[C@@H](O)[C@@H](C)[C@H](OC(C)=O)[C@@H]1C [RIFAMPIN]
MIC [15]: 2.5 µg/mL (≈ 3.04 µM)
MIC [16]: 1 µg/mL (≈ 1.22 µM)
MIC [17]: 0.24 µM (≈ 0.198 µg/mL)
MIC [18]: 40 µg/mL (≈ 48.6 µM)
MIC [19]: 40 µg/mL (≈ 48.6 µM)
